Measured values reported in patent US8030499B2, “1,3-dihydro-2H-indole-2-one compound and pyrrolidine-2-one compound fused with aromatic heterocycle” (Taisho Pharmaceutical Co., Ltd., priority 2005, dated 2011).

Experiments:
human V1b receptor = target: T1, human V1b receptor (Homo sapiens, UniProt P47901); assay: V1b receptor binding assay ([3H](Arg8)-vasopressin, crude membranes of CHO cells); conditions: receptor binding test, human V1b, CHO cell membranes
T1 construct: expressed in transfected cells; host or cells: CHO cells
T1 sequence (P47901 1-424): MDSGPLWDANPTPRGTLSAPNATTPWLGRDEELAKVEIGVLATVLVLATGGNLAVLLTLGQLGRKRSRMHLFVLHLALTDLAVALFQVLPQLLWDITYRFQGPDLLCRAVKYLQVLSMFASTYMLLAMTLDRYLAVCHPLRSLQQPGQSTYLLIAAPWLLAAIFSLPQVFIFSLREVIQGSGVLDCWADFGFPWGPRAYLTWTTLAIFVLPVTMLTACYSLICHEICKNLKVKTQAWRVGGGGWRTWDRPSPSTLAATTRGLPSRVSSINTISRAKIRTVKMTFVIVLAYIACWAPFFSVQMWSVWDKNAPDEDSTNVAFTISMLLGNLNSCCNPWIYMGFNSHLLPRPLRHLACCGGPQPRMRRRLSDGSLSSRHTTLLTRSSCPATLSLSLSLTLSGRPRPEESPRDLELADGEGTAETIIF
Description: (§1) A summary of the methods is given below.
(§2) Each obtained homogenate was centrifuged for 20 minutes at 50,000×g and 4° C., the sediment was resuspended in a 50 mmol/L Tris hydrochloric acid buffer solution (pH7.4, containing 10 mmol/L magnesium chloride and 0.1% bovine serum albumin), which served as a crude membrane preparation. This crude membrane preparation was added with [^3H] (Arg^8) vasopressin (final concentration: 0.1 nmol/L to 0.4 nmol/L), and each test drug (final concentration: 0.1 nmol/L to lμmol/L or 0.01 nmol/L to 0.1 μmol/L) to 22° C. for 90 minutes. After the end of the reaction, the reaction solution was filtrated using a GF/C glass fiber filter, which had been presoaked in 0.3% polyethyleneimine for two hours. After the GF/C glass fiber filter was dried sufficiently, scintillator was added, and the radioactivity on the filter was measured using a liquid scintillation counter. Binding of [^3H] (Arg^8)-vasopressin in the presence of (Arg^8)-vasopressin, in the amounts of 0.1 μmol/L in the V1b receptor binding assay and 5 μmol/L in the V1a and V2 receptor binding assay, were taken as non-specific binding, and the value obtained by subtracting non-specific binding from the total binding in the absence (Arg^8)-vasopressin served as specific binding.
In addition, regarding the V1b receptor binding assay, the value obtained by, subtracting the amount of binding in the presence of 0.1 μmol/L test drug from the total amount of binding, divided by the amount of specific binding, served as the rate of inhibition (% of inhibition) of the test drug at the concentration tested.

human V1a receptor = target: T2, human V1a receptor (Homo sapiens, UniProt P37288); assay: V1a receptor binding assay ([3H](Arg8)-vasopressin, crude membranes of 293FT cells); conditions: receptor binding test, 293FT cell membranes
T2 construct: expressed in transfected cells; host or cells: 293FT cells
T2 sequence (P37288 whole entry): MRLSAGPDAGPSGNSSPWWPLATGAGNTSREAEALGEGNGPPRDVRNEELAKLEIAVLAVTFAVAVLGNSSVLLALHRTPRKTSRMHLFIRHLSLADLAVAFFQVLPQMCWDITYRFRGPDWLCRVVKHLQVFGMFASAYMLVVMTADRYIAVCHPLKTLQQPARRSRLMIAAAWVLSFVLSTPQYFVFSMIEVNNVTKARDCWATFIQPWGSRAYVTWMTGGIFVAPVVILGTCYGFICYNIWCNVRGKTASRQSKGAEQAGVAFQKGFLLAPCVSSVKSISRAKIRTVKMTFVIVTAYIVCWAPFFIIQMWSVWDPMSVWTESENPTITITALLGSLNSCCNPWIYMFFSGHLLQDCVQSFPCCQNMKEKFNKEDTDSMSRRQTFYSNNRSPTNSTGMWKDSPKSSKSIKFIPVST
Description: as §1, §2

human V2 receptor = target: T3, human V2 receptor (Homo sapiens, UniProt P30518); assay: V2 receptor binding assay ([3H](Arg8)-vasopressin, crude membranes of 293FT cells); conditions: receptor binding test, human V2, 293FT cell membranes
T3 construct: expressed in transfected cells; host or cells: 293FT cells
T3 sequence (P30518 whole entry): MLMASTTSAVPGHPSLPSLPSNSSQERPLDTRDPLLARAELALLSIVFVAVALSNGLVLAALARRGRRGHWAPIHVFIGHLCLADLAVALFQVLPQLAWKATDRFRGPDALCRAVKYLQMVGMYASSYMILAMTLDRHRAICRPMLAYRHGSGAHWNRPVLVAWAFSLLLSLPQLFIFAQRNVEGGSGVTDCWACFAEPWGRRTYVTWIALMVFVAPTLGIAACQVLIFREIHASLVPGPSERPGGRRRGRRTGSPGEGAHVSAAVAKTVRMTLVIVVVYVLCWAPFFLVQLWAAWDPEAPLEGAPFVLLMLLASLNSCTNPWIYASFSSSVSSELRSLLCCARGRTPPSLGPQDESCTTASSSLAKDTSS
Description: as §1, §2

Compound	IC50 (human V1b receptor)	IC50 (human V1a receptor)	IC50 (human V2 receptor)
COc1ccc(S(=O)(=O)N2C(=O)C(c3ccccc3OC)(N3C[C@H](O)C[C@H]3C(=O)N(C)C)c3cc(Cl)ccc32)c(OC(F)(F)F)c1 (single isomer, unassigned) [Example 2]	2.6 nM	743 nM	4010 nM
COc1ccc(S(=O)(=O)N2C(=O)C(c3ccccc3OC)(N3CCC[C@H]3C(=O)N(C)C)c3cc(Cl)ccc32)c(OC(F)(F)F)c1 (single isomer, unassigned) [Example 5, 1-(5-chloro-3-(2-methoxyphenyl)-1-{[4-methoxy-2-(trifluoromethoxy)phenyl]sulfonyl}-2-oxo-2,3-dihydro-1H-indol-3-yl)-N,N-dimethyl-L-prolinamide]	16 nM	2180 nM	> 10000 nM
COc1ccc(S(=O)(=O)N2C(=O)C(c3cccnc3OC)(N3C[C@H](O)C[C@H]3C(=O)N(C)C)c3cc(Cl)ccc32)c(OC(F)F)c1 (single isomer, unassigned) [Example 170]	0.56 nM	65.1 nM	4050 nM
COc1ccc(S(=O)(=O)N2C(=O)C(c3cc(C)ccc3OC)(N3C[C@H](O)C[C@H]3C(=O)N(C)C)c3cc(Cl)ccc32)c(OC(F)(F)F)c1 (single isomer, unassigned) [Example 103]	2.3 nM	504 nM	3370 nM
COc1ccc(S(=O)(=O)N2C(=O)C(c3cc(N4CCOCC4)ccc3OC)(N3C[C@H](O)C[C@H]3C(=O)N(C)C)c3cc(Cl)ccc32)c(OC(F)(F)F)c1 (single isomer, unassigned) [Example 191]	1.8 nM	293 nM	3340 nM
COc1ccc(S(=O)(=O)N2C(=O)C(c3cc(C)ccc3OC)(N3C[C@H](OCCCN(C)C)C[C@H]3C(=O)N(C)C)c3cc(Cl)ccc32)c(OC(F)(F)F)c1 (single isomer, unassigned) [Example 140]	1.1 nM	355 nM	3190 nM
COc1ccc(S(=O)(=O)N2C(=O)C(O[C@@H](C)C(=O)N(C)C)(c3ccccc3OC)c3cc(Cl)ccc32)c(OC(F)(F)F)c1 (single isomer, unassigned) [Example 81]	18 nM	677 nM	> 10000 nM
COc1ccc(S(=O)(=O)N2C(=O)C(c3cc(C)ccc3OC)(N3CCCC[C@H]3C(=O)N(C)C)c3cc(Cl)ccc32)c(OC(F)(F)F)c1 (single isomer, unassigned) [Example 116]	2.9 nM	653 nM	> 10000 nM
COc1ccc(S(=O)(=O)N2C(=O)C(c3ccccc3OC)(N(C)[C@@H](C)C(=O)N(C)C)c3cc(Cl)ccc32)c(OC(F)(F)F)c1 (single isomer, unassigned) [Example 71]	6.3 nM	4050 nM	> 10000 nM
COc1ccc(S(=O)(=O)N2C(=O)C(c3cc(C)ccc3OC)(N3C[C@H](O)C[C@H]3C(=O)N(C)C)c3cc(C#N)ccc32)c(OC(F)(F)F)c1 (single isomer, unassigned) [Example 126]	15 nM	8240 nM	> 10000 nM
COc1ccc(S(=O)(=O)N2C(=O)C(c3cc(C)ccc3OC)(N3C[C@H](O)C[C@H]3C(=O)N(C)C)c3cc(Br)cnc32)c(OC(F)(F)F)c1 (single isomer, unassigned) [Example 120]	11 nM	6790 nM	> 10000 nM
COc1ccc(S(=O)(=O)N2C(=O)C(c3ccccc3OC)(N3Cc4ccccc4C[C@H]3C(=O)N(C)C)c3cc(Cl)ccc32)c(OC(F)(F)F)c1 (single isomer, unassigned) [Example 38 A]	31 nM	> 10000 nM	> 10000 nM
COc1ccc(S(=O)(=O)N2C(=O)C(c3cc(-c4ccncc4)ccc3OC)(N3C[C@H](O)C[C@H]3C(=O)N(C)C)c3cc(Cl)ccc32)c(OC(F)(F)F)c1 (single isomer, unassigned) [Example 192]	4.3 nM	792 nM	> 10000 nM
COc1ccc(S(=O)(=O)N2C(=O)C(N[C@@H](C)C(=O)N(C)C)(c3ccccc3OC)c3cc(Cl)ccc32)c(OC(F)(F)F)c1 (single isomer, unassigned) [Example 61]	15 nM	1470 nM	> 10000 nM
